Measurements from patent publication US20210029995A1, “Use of Volatile Organic Compounds as Pesticides” (Certis Europe B.V., priority 2018, published 2021).
Where a name gives a salt, the structure may show the parent alone.

Experiments:
H. bacteriophora [1] = conditions: 20 μl VOC, checked after 24 hr, sealed Petri dish
Description: (§1) Authenticated M. brunneum VOCs, along with other selected VOCs, were screened for nematicidal activity against S. feltiae and H. bacteriophora. […] Each Petri dish (90 mm) contained 20 ml of the water agar medium. The inoculated plates were kept in darkness for 3 hr at room temperature to acclimatize. The plates were then exposed to 20 μl of the VOC dispensed from a 8 mm paper disc (Whatman™, 0.34 mm thickness) positioned on a 25×25 mm glass coverslip placed in the centre of the Petri dish lid (FIG. 1A). The plates were sealed with a double layer of Parafilm and were kept in the dark at 21° C. and checked after 24 hr. The number of live and dead nematodes were counted with the aid of a stereo binocular microscope (30×).
(§2) The deposition was predetermined using bacterial cultures highly sensitive to these VOCs. The edge of the circular zone of inhibition delineated the area of activity.
(§3) Mean of mortality was calculated from the total number of alive and dead individuals across all circles. There were five replicates per treatment and the whole experiment was repeated twice.

S. feltiae [2] = conditions: 20 μl VOC, checked after 24 hr, sealed Petri dish
Description: as §1, §2, §3

S. carpocapsae = experiment: Dose mortality assay for the EPNs (Example 2); type: in vivo, Steinernema carpocapsae; conditions: for mortality: after 24 hr
Description: (§4) All statistical analyses were carried out using RStudio statistics package (RStudio, Inc. version 1.0.153), using “MASS” and “multcomp” packages. For all mortality data, differential sensitivity between EPN species and/or insect species and differential compound potency were determined using a generalised linear model (GLM) and Tukey's range test in post-hoc analysis. LD50 values were calculated using a GLM and the “dose.p” function within the “MASS” package. An ANOVA was carried out on the chemotactic responses of EPNs to VOCs, with the strength of response compared at each time and concentration. Welch's t-tests were used to compare means of mortality results in the final EPNs efficacy assay.
(§5) Dose mortality assays were performed using 3-octanone and 1-octen-3-ol. The assays were performed as described in Example 1, except that the EPNs (S. carpocapsae (Sc), S. feltiae (Sf) and H. bacteriophora (Hb)) were exposed to different doses of the VOCs (5, 10, 15 and 20 μl). The mortality was recorded as described previously at 3, 6, 12 and 24 hr post treatment. Controls included EPNs only (no VOC) and EPNs+1-octene. The results are shown in FIG. 2 (results 3 hr post treatment), 3 (results 6 hr post treatment), 4 (results 12 hr post treatment) & 5 (results 24 hr post treatment).

S. feltiae [3] = experiment: Dose mortality assay for the EPNs (Example 2); type: in vivo, Steinernema feltiae
Description: as §4, §5

H. bacteriophora [4] = experiment: Dose mortality assay for the EPNs (Example 2); type: in vivo, Heterorhabditis bacteriophora
Description: as §4, §5

[5] = tested on: S. carpocapsae, S. feltiae and H. bacteriophora; experiment: Dose mortality assay, statement for all three EPNs; type: in vivo; conditions: for mortality: all three EPNs, after 24 hr
Description: (§6) Authenticated M. brunneum VOCs, along with other selected VOCs, were screened for nematicidal activity against S. feltiae and H. bacteriophora. 750 μl of nematode suspension containing approximately 5000 Us in tap water, was spread uniformly over the water agar surface (2.6% w/v agar, 5 mM potassium phosphate pH 6, 1 mM CaCl2 and 1 mM MgSO4) of a Petri dish. Each Petri dish (90 mm) contained 20 ml of the water agar medium. The inoculated plates were kept in darkness for 3 hr at room temperature to acclimatize. The plates were then exposed to 20 μl of the VOC dispensed from a 8 mm paper disc (Whatman™, 0.34 mm thickness) positioned on a 25×25 mm glass coverslip placed in the centre of the Petri dish lid (FIG. 1A). The plates were sealed with a double layer of Parafilm and were kept in the dark at 21° C. and checked after 24 hr. The number of live and dead nematodes were counted with the aid of a stereo binocular microscope (30×).
as §5, with “EPNs+1-octene.” for “EPNs+1-octene. The results are shown in FIG. 2 (results 3 hr post treatment), 3 (results 6 hr post treatment), 4 (results 12 hr post treatment) & 5 (results 24 hr post treatment).”

[6] = tested on: root knot nematode M. hapla; conditions: for nematicidal activity against M. hapla: 5 μl and 10 μl
Description: as §6
A study was conducted to determine the susceptibility of the root knot nematode M. hapla, a major crop pest, to 3-octanone and 1-octen-3-ol. Single egg-mass populations of M. hapla were kindly provided by Dr Ivan Grove (Harper Adams University/Crop and Environment Sciences). Four-week-old tomato plants (Solanum lycopersicum cv. Rutgers) were grown in a greenhouse. Soil in each pot was infested by pipetting egg masses of M. hapla suspended in tap water and cultivated at approximately 25±2° C. in a greenhouse. Six months following inoculation, tomato plants were uprooted and root systems were carefully washed with running tap water to remove adhered soil. The roots were cut into small pieces and extracted by the Baermann funnel method for 3-5 days to obtain live nematodes. The inoculum concentration included a range of life stages and was adjusted to approximately 2000 individuals using tap water by the aid of a haemocytometer. A mortality assay was carried out as described in Examples 1 and 2 above. The assay was carried out at two doses of the VOCs (5 μl and 10 μl) and the mortality was recorded at 3, 6 and 24 hr post treatment. There were three replicates per treatment and the whole experiment was repeated twice.

| Compound | Mortality (%) (Mean ± SE) H. bacteriophora (Hb) (H. bacteriophora [1]) | Mortality (%) (Mean ± SE) S. feltiae (Sf) (S. feltiae [2]) | other results |
| --- | --- | --- | --- |
| CCCCCCCCCCCCC [Tridecane] | 4.1 ± 1.6% | 32.3 ± 5% |  |
| C=CC(O)CCCCC (centres unmarked) [1-octen-3-ol] | 91.6±2.1% | 100% | LD50 (S. carpocapsae; 24 hr): 41.01 µL; LD50 (S. feltiae [3]; 6 hr): 10.56 µL; LD50 (H. bacteriophora [4]; 6 hr): 21.72 µL; mortality [5]: very high; nematicidal activity against M. hapla [6]: strong nematicidal activity; mortality response ([6]; M. hapla, after 3 hr and 6 hr, 5 and 10 μl): dose dependent response; dead nematodes ([6]; M. hapla, after 24 hr, both doses (5 μl and 10 μl)): over 90% |
| C=C(C)[C@H]1CC=C(C)CC1 [(R)-(+)-Limonene] | 5.9 ± 1.9% | 16.7 ± 3.2% |  |
| C=CCCCCCC [1-octene, reference compound] | 19.4 ± 3.8% | 20.1 ± 3% | mortality (S. carpocapsae): ≤ 50%; mortality (S. feltiae [3]; after 24 hr): ≤ 50%; mortalities ([5]; EPNs, over time (3-24 hr)): extremely low |
| COC(=O)CC(C)C [Methyl isovalerate] | 55 ± 2.6% | 38.1 ± 7% |  |
| Farnesene | 7.8 ± 3.1% | 43 ± 1.1% |  |
| CCCCCC(=O)CC [3-octanone] | 100% | 100% | LD50 (S. carpocapsae; 12 hr): 94.88 µL; mortality (S. carpocapsae; all doses (5-20 μl)): all nematodes were dead at all doses; mortality (S. feltiae [3]; at all time points (3, 6, 12, 24 hr)): > 99%; LD50 (μl) (S. feltiae [3]; no LD50 calculated): a (>99% mortality from 3 hr); LD50 (H. bacteriophora [4]; 3 hr): 5.68 µL; mortality (H. bacteriophora [4]; time points later than 3 hr): exceeded 90%; mortality [5]: very high; nematicidal activity against M. hapla [6]: strong nematicidal activity; mortality ([6]; in vivo): 100% |
| CC(C)CCO [Isoamyl alcohol] | 9.7 ± 2.1% | 20.8 ± 3% |  |
| CC(O)C(C)O (centres unmarked) [2,3-Butanediol] | 11.4 ± 2.3% | 12.5 ± 7.2% |  |
| CCCCCCCCCCC [Undecane] | 7.5 ± 2.7% | 25.4 ± 5.6% |  |
| CC(C)CCOC=O [Isoamyl formate] | 46.6±1.8% | 58% |  |
